# Read-outs that look alike come from different tables or passages of the source.
# How the values were obtained:
# Type in all cases: cell-based
# [1] = system: Japanese encepahalitis virus; settings: read-out: In-Vitro Antiviral Screening Result (EC50) C
# SARS coronavirus = assay: microbe, parasite or virus in culture; settings: Severe acute respiratory syndrome coronavirus
# many virus = assay: Antivirus studies in vitro, summary over the virus panel; settings: read-out: EC50 against many virus
# Method: compounds were diluted to 20 mg/mL in DMSO then prepared in for log 10 dilutions of 100 μg/mL down to 0.1 μg/mL) in MEM solution with 50 μg/mL gentamicin and 2% FBS. Each dilution was added to 5 wells of a 96-well plate with 80-100% confluent cells. Three wells of each dilution were infected with virus, and two wells remained uninfected as toxicity controls. The multiplicity of infection (MOI) was as low as possible to achieve CPE within 3-5 days of incubation. A known active compound was tested in parallel as a control. After untreated virus control wells reached maximum cytopathic effect (CPE), each well was scored microscopically. Plates were then stained with neutral red dye for approximately 2 hours, then supernatant dye was removed from the wells and the incorporated dye was extracted in 50:50 Sorensen citrate buffer/ethanol, then the optical density was read on a spectrophotometer.
# Influenza A virus H1N1 = assay: microbe, parasite or virus in culture; settings: H1N1, read-out: In-Vitro Antiviral Screening Result (EC50) H
# [2] = system: Venezuelan equine encephalitis virus; assay: microbe, parasite or virus in culture; settings: read-out: In-Vitro Antiviral Screening Result (EC50) G
# Rift Valley fever virus = assay: microbe, parasite or virus in culture
# [3] = read-out: In-Vitro Antiviral Screening Result (EC50) F
# [4] = read-out: In-Vitro Antiviral Screening Result (EC50) E
SMILES,EC50 [1],EC50 (SARS coronavirus; [3]),EC50 (many virus),EC50 (Influenza A virus H1N1),EC50 [2],EC50 (Rift Valley fever virus; [4]),EC50 (SARS coronavirus; read-out: EC50 against virus F),EC50 (Rift Valley fever virus; read-out: EC50 against virus E)
"CN1C(=O)CN2C=C(/C=C3C=C(/C=C/C4C5(CCC6[C@]4(C)CC[C@@H](O)[C@@]6(C)CO)CO5)C(=O)O\3)C=CC21 (stereo partly shown) [Example 68, 11,12-dedihydro-14-deoxy-(E)-15-((1-methyl-2-oxo-1,2,3,8a-tetrahydroimidazo[1,2-a]pyridin-6-yl)methylene)-8,17-epoxyandrographolide]",< 50 µg/mL,< 50 µg/mL,< 50 µg/mL,> 100 µg/mL,< 50 µg/mL,> 100 µg/mL,,
C=C1C(N2CCOCC2)CC2[C@](C)(CC[C@@H](O)[C@@]2(C)CO)C1/C=C/C1=CC(=C\c2ccc(N(C)C)cc2)/OC1=O (stereo partly shown) [Example 124],< 50 µg/mL,< 50 µg/mL,< 50 µg/mL,< 100 µg/mL,< 50 µg/mL,< 50 µg/mL,,
"C=C1CCC2C3(C)COC(c4ccc(OC5OC(CO)C(O)C(O)C5O)cc4)OC3CCC2(C)C1C/C=C1/C(=O)OCC1O (stereo not shown) [Example 45, (E)-3-(2-(6a,10b-dimethyl-8-methylene-3-(4-((3,4,5-trihydroxy-6-(hydroxymethyl)tetrahydro-2H-pyran-2-yl)oxy)phenyl)decahydro-1H-naphtho[2,1-d][1,3]dioxin-7-yl)ethylidene)-4-hydroxydihydrofuran-2(3H)-one]",< 50 µg/mL,< 50 µg/mL,< 50 µg/mL,> 100 µg/mL,< 50 µg/mL,< 50 µg/mL,,
C=C1C(N2CCOCC2)CC2[C@](C)(CC[C@@H](O)[C@@]2(C)CO)C1/C=C/C1=CCOC1=O (stereo partly shown) [Example 83],< 50 µg/mL,< 50 µg/mL,,< 50 µg/mL,< 50 µg/mL,< 50 µg/mL,< 1 µg/mL,< 1 µg/mL
"C[C@]12CC[C@@H](O)[C@@](C)(CO)C1CCC1(CO1)C2/C=C/C1=CC(=C\c2cnc(N3CCCC3CO)nc2)/OC1=O (stereo partly shown) [Example 69, 11,12-dedihydro-14-deoxy-(E)-15-((2-(2-(hydroxymethyl)pyrrolidin-1-yl)pyrimidin-5-yl)methylene)-8,17-epoxyandrographolide]",> 100 µg/mL,< 50 µg/mL,< 50 µg/mL,< 100 µg/mL,> 100 µg/mL,< 50 µg/mL,,
"C[C@]12CC[C@@H](O)[C@@](C)(CO)C1CCC1(CO1)C2/C=C/C1=CC(=C\c2ccc(-n3ccnc3)cc2)/OC1=O (stereo partly shown) [Example 77, 11,12-dedihydro-14-deoxy-(E)-15-(4-(1H-imidazol-1-yl)benzylidene)-8,17-epoxyandrographolide]",< 100 µg/mL,< 100 µg/mL,< 50 µg/mL,< 100 µg/mL,> 100 µg/mL,< 50 µg/mL,,
"C=C1CCC2C(C)(CO)C(O)CCC2(C)C1/C=C/C1=CC(=C\c2ccc(Cl)cc2Cl)/OC1=O (stereo not shown) [Example 35, 11,12-dedihydro-14-deoxy-(E)-15-(2,4-dichlorobenzylidene)andrographolide]",< 50 µg/mL,< 50 µg/mL,< 50 µg/mL,< 50 µg/mL,< 50 µg/mL,> 100 µg/mL,,
"C=C1CCC2[C@](C)(CC[C@@H](O)[C@@]2(C)CO)C1/C=C/C1=CC(=C\c2cn(C)c3nc(N)ncc23)/OC1=O (stereo partly shown) [Example 46, 11,12-dedihydro-14-deoxy-(E)-15-((2-amino-7-methyl-7H-pyrrolo[2,3-d]pyrimidin-5-yl)methylene)andrographolide]",< 100 µg/mL,< 50 µg/mL,< 50 µg/mL,< 100 µg/mL,< 100 µg/mL,< 50 µg/mL,,
"C=C1CCC2[C@](C)(CC[C@@H](O)[C@@]2(C)CO)C1/C=C/C1=CC(=C\c2cnc(N)[nH]c2=O)/OC1=O (stereo partly shown) [Example 50, 11,12-dedihydro-14-deoxy-15-(2-amino-4-oxo-3H-pyrimidine-5-ylmethylene)andrographolide]",< 50 µg/mL,< 100 µg/mL,< 50 µg/mL,< 50 µg/mL,< 50 µg/mL,< 100 µg/mL,,
"C=C1CCC2[C@](C)(CC[C@@H](O)[C@@]2(C)CO)C1/C=C/C1=CC(=C\c2cnc(N3CCCC3CO)nc2)/OC1=O (stereo partly shown) [Example 65, 11,12-dedihydro-14-deoxy-(E)-15-((2-(2-(hydroxymethyl)pyrrolidin-1-yl)pyrimidin-5-yl)methylene)andrographolide]",> 100 µg/mL,< 50 µg/mL,< 50 µg/mL,> 100 µg/mL,< 100 µg/mL,< 50 µg/mL,,
CC(=O)OCC1(C)C(OC(C)=O)CCC2(C)C(/C=C/C3=CCOC3=O)C3C(=Nc4cncn43)CC12 (stereo not shown) [Example 95],> 100 µg/mL,< 50 µg/mL,< 50 µg/mL,< 50 µg/mL,< 100 µg/mL,> 100 µg/mL,,
"C=C1CCC2C(C)(CO)C(O)CCC2(C)C1CC(Nc1cccc(Cl)c1)C1=CCOC1=O (stereo not shown) [Example 53, 12-((3-chlorophenyl)amino)-14-deoxyandrographolide]",< 50 µg/mL,< 50 µg/mL,,< 50 µg/mL,< 50 µg/mL,< 10 µg/mL,< 1 µg/mL,< 1 µg/mL
C=C1CCC2[C@](C)(CC[C@@H](O)[C@@]2(C)CO)C1/C=C/C1=CC(=C\c2ccc(N(C)C)cc2O)/OC1=O (stereo partly shown) [Example 44],> 100 µg/mL,< 50 µg/mL,< 50 µg/mL,< 100 µg/mL,> 100 µg/mL,> 100 µg/mL,,
"C=C1CCC2C(C)(CO)C(O)CCC2(C)C1/C=C/C1=CC(=C\c2ccc(OC3OC(CO)C(O)C(O)C3O)cc2)/OC1=O (stereo not shown) [Example 40, 11,12-dedihydro-14-deoxy-15-(4-((3,4,5-trihydroxy-6-(hydroxymethyl)tetrahydro-2H-pyran-2-yl)oxy)benzylidene)andrographolide]",< 100 µg/mL,< 50 µg/mL,< 50 µg/mL,> 100 µg/mL,> 100 µg/mL,> 100 µg/mL,,
"C=C1CCC2[C@](C)(CC[C@@H](O)[C@@]2(C)CO)C1/C=C/C1=CC(=C\c2ccc(-n3ccnc3)cc2)/OC1=O (stereo partly shown) [Example 79, 11,12-dedihydro-14-deoxy-(E)-15-(4-(1H-imidazol-1-yl)benzylidene)andrographolide]",< 50 µg/mL,< 50 µg/mL,< 50 µg/mL,< 50 µg/mL,< 50 µg/mL,< 50 µg/mL,,
"CN(C)c1ccc(/C=C2C=C(/C=C/C3C4(CO4)C(N4CCOCC4)CC4[C@]3(C)CC[C@@H](O)[C@@]4(C)CO)C(=O)O\2)cc1 (stereo partly shown) [Example 76, 7-(4-morpholino)-11,12-dedihydro-14-deoxy-15-(4-(dimethylamino)benzylidene)andrographolide]",> 100 µg/mL,< 50 µg/mL,< 50 µg/mL,< 100 µg/mL,> 100 µg/mL,< 100 µg/mL,,
"C=C1CCC2[C@](C)(CC[C@@H](O)[C@@]2(C)CO)C1/C=C/C1=CC(=C\c2ccc(N(C)C)cc2)/OC1=O (stereo partly shown) [Example 37, 11,12-dedihydro-14-deoxy-15-(4-(dimethylamino)benzylidene)andrographolide]",< 50 µg/mL,< 50 µg/mL,,< 50 µg/mL,< 50 µg/mL,< 50 µg/mL,< 1 µg/mL,< 1 µg/mL
"C=C1CCC2C(C)(CO)C(O)CCC2(C)C1CC(NC12CN3CN(CN(C3)C1)C2)C1=CCOC1=O (stereo not shown) [Example 57, 12-((1s,3s,5s)-1,3,5-triazaadamantan-7-ylamino)-14-deoxyandrographolide]",< 50 µg/mL,< 50 µg/mL,,< 50 µg/mL,< 50 µg/mL,< 50 µg/mL,< 1 µg/mL,< 1 µg/mL
